Tested on: HCT 116 cells transfected with a luciferase reporter under the control of an HIF-responsive sequence
Experiment: HIF-luciferase assay
Type: cell-based
Details: Homo sapiens; HCT 116 HIF-luciferase reporter cells, hypoxia chamber (1% O2), 24 h; in some cases means of up to four individual determinations
Method: B-1. HIF-Luciferase Assay
HCT 116 cells were transfected in a stable manner with a plasmid which contained a luciferase reporter under the control of an HIF-responsive sequence. These cells were sown in microtitre plates [20000 cells/cavity in RPMI 1640 medium with 10% foetal calf serum (FCS) and 100 μg/ml of hygromycin]. Incubation was carried out overnight under standard conditions (5% CO2, 21% O2, 37° C., moistened). The following morning the cells were incubated with various concentrations of the test substances (0-10 μmol/l) in a hypoxia chamber (1% O2). After 24 h, Bright Glo reagent (Promega, Wisconsin, USA) was added in accordance with the manufacturer's instructions, and after 5 min the luminescence was measured. Cells which were incubated under normoxia served as background controls.

IC50	SMILES
20 nM	O=C(c1cccc(Cn2nc(-c3nc(-c4ccc(OC(F)(F)F)cc4)no3)ccc2=O)c1)N1CCOCC1 [Example 84, 2-[3-(Morpholin-4-ylcarbonyl)benzyl]-6-{3-[4-(trifluoromethoxy)phenyl]-1,2,4-oxadiazol-5-yl}pyridazin-3(2H)-one]
30 nM	O=c1ccc(-c2nc(-c3ccc(OC(F)(F)F)cc3)no2)cn1Cc1ccc(NCCCO)nc1 [Example 63, 1-({6-[(3-Hydroxypropyl)amino]pyridin-3-yl}methyl)-5-{3-[4-(trifluoromethoxy)phenyl]-1,2,4-oxadiazol-5-yl}pyridin-2(1H)-one]
40 nM	CC(C)(c1ccc(-c2noc(-c3ccc(=O)n(Cc4ccnc(N5CCC(C#N)CC5)c4)n3)n2)cc1)C(F)(F)F [Example 95, 1-(4-{[6-oxo-3-{3-[4-(1,1,1-trifluoro-2-methylpropan-2-yl)phenyl]-1,2,4-oxadiazol-5-yl}pyridazin-1(6H)-yl]methyl}pyridin-2-yl)piperidine-4-carbonitrile]
20 nM	CN(C)C(=O)c1cccc(Cn2cc(-c3nc(-c4ccc(OC(F)(F)F)cc4)no3)ccc2=O)c1 [Example 22, N,N-Dimethyl-3-{[2-oxo-5-{3-[4-(trifluoromethoxy)phenyl]-1,2,4-oxadiazol-5-yl}pyridin-1(2H)-yl]methyl}benzamide]
6 nM	CNc1ccc(Cn2nc(-c3nc(-c4ccc(OC(F)(F)F)cc4)no3)ccc2=O)cn1 [Example 100, 2-{[6-(Methylamino)pyridin-3-yl]methyl}-6-{3-[4-(trifluoromethoxy)phenyl]-1,2,4-oxadiazol-5-yl}pyridazin-3(2H)-one]
20 nM	N#CC1CCN(c2cc(Cn3nc(-c4nc(-c5ccc(OC(F)(F)F)cc5)no4)ccc3=O)ccn2)CC1 [Example 94, 1-(4-{[6-oxo-3-{3-[4-(trifluoromethoxy)phenyl]-1,2,4-oxadiazol-5-yl}pyridazin-1(6H)-yl]methyl}pyridin-2-yl)piperidine-4-carbonitrile]
4 nM	CC(C)(c1ccc(-c2noc(-c3ccc(=O)n(Cc4ccnc(N5CCN(C6CC6)CC5)c4)c3)n2)cc1)C(F)(F)F [Example 53, 1-{[2-(4-Cyclopropylpiperazin-1-yl)pyridin-4-yl]methyl}-5-{3-[4-(1,1,1-trifluoro-2-methylpropan-2-yl)phenyl]-1,2,4-oxadiazol-5-yl}pyridin-2(1H)-one]
6 nM	CC(C)(O)Cc1cccc(Cn2nc(-c3nc(-c4ccc(OC(F)(F)F)cc4)no3)ccc2=O)c1 [Example 90, 2-[3-(2-Hydroxy-2-methylpropyl)benzyl]-6-{3-[4-(trifluoromethoxy)phenyl]-1,2,4-oxadiazol-5-yl}pyridazin-3(2H)-one]
4 nM	O=C(c1cccc(Cn2cc(-c3nc(-c4ccc(OC(F)(F)F)cc4)no3)ccc2=O)c1)N1CCOCC1 [Example 34, 1-[3-(Morpholin-4-ylcarbonyl)benzyl]-5-{3-[4-(trifluoromethoxy)phenyl]-1,2,4-oxadiazol-5-yl}pyridin-2(1H)-one]
3 nM	CC(C)(c1ccc(-c2noc(-c3ccc(=O)n(Cc4ccnc(N5CCN(C6CC6)CC5)c4)n3)n2)cc1)C(F)(F)F [Example 97, 2-{[2-(4-Cyclopropylpiperazin-1-yl)pyridin-4-yl]methyl}-6-{3-[4-(1,1,1-trifluoro-2-methylpropan-2-yl)phenyl]-1,2,4-oxadiazol-5-yl}pyridazin-3(2H)-one]
5 nM	CC(=O)OC1(c2cccc(Cn3nc(-c4nc(-c5ccc(OC(F)(F)F)cc5)no4)ccc3=O)c2)CC1 [Example 89, 1-(3-{[6-oxo-3-{3-[4-(trifluoromethoxy)phenyl]-1,2,4-oxadiazol-5-yl}pyridazin-1(6H)-yl]methyl}phenyl)cyclopropyl acetate]
50 nM	CN1CCN(c2cc(Cn3cc(-c4nc(-c5ccc(C6(C(F)(F)F)CC6)cc5)no4)ccc3=O)ccn2)CC1 [Example 48, 1-{[2-(4-Methylpiperazin-1-yl)pyridin-4-yl]methyl}-5-(3-{4-[1-(trifluoromethyl)cyclopropyl]phenyl}-1,2,4-oxadiazol-5-yl)pyridin-2(1H)-one]
2 nM	O=c1ccc(-c2nc(-c3ccc(OC(F)(F)F)cc3)no2)cn1Cc1cccc(N2CC(O)C2)c1 [Example 13, 1-[3-(3-Hydroxyazetidin-1-yl)benzyl]-5-{3-[4-(trifluoromethoxy)phenyl]-1,2,4-oxadiazol-5-yl}pyridin-2(1H)-one]
15 nM	CN(C)C(=O)c1cccc(Cn2cc(-c3nc(-c4ccc(C(C)(C)C(F)(F)F)cc4)no3)ccc2=O)c1 [Example 23, N,N-Dimethyl-3-{[2-oxo-5-{3-[4-(1,1,1-trifluoro-2-methylpropan-2-yl)phenyl]-1,2,4-oxadiazol-5-yl}pyridin-1(2H)-yl]methyl}benzamide]
200 nM	Cc1ccc(Cn2nc(-c3nc(-c4ccc(OC(F)(F)F)cc4)no3)ccc2=O)cc1 [Example 65, 2-(4-Methylbenzyl)-6-{3-[4-(trifluoromethoxy)phenyl]-1,2,4-oxadiazol-5-yl}pyridazin-3(2H)-one]
5 nM	CC(C)(c1ccc(-c2noc(-c3ccc(=O)n(Cc4cccc(C(=O)N5CCC5)c4)c3)n2)cc1)C(F)(F)F [Example 25, 1-[3-(Azetidin-1-ylcarbonyl)benzyl]-5-{3-[4-(1,1,1-trifluoro-2-methylpropan-2-yl)phenyl]-1,2,4-oxadiazol-5-yl}pyridin-2(1H)-one]
2 nM	CC(C)(c1ccc(-c2noc(-c3ccc(=O)n(Cc4cccc(N5CC(O)C5)c4)c3)n2)cc1)C(F)(F)F [Example 15, 1-[3-(3-Hydroxyazetidin-1-yl)benzyl]-5-{3-[4-(1,1,1-trifluoro-2-methylpropan-2-yl)phenyl]-1,2,4-oxadiazol-5-yl}pyridin-2(1H)-one]
50 nM	CC(C)(c1ccc(-c2noc(-c3ccc(=O)n(Cc4cccc(C(=O)NCCCO)c4)n3)n2)cc1)C(F)(F)F [Example 73, N-(3-Hydroxypropyl)-3-{[6-oxo-3-{3-[4-(1,1,1-trifluoro-2-methylpropan-2-yl)phenyl]-1,2,4-oxadiazol-5-yl}pyridazin-1(6H)-yl]methyl}benzamide]
2 nM	O=c1ccc(-c2nc(-c3ccc(SC(F)(F)F)cc3)no2)cn1Cc1cccc(N2CC(O)C2)c1 [Example 14, 1-[3-(3-Hydroxyazetidin-1-yl)benzyl]-5-(3-{4-[(trifluoromethyl)sulphanyl]phenyl}-1,2,4-oxadiazol-5-yl)pyridin-2(1H)-one]
1.5 nM	N#CC1CCN(c2cccc(Cn3cc(-c4nc(-c5ccc(C6(C(F)(F)F)CC6)cc5)no4)ccc3=O)c2)CC1 [Example 12, 1-(3-{[2-oxo-5-(3-{4-[1-(trifluoromethyl)cyclopropyl]phenyl}-1,2,4-oxadiazol-5-yl)pyridin-1(2H)-yl]methyl}phenyl)piperidine-4-carbonitrile]
15 nM	CC(C)(c1ccc(-c2noc(-c3ccc(=O)n(Cc4cccc(C5(CO)CC5)c4)c3)n2)cc1)C(F)(F)F [Example 44, 1-{3-[1-(Hydroxymethyl)cyclopropyl]benzyl}-5-{3-[4-(1,1,1-trifluoro-2-methylpropan-2-yl)phenyl]-1,2,4-oxadiazol-5-yl}pyridin-2(1H)-one]
10 nM	O=C(c1cccc(Cn2nc(-c3nc(-c4ccc(OC(F)(F)F)cc4)no3)ccc2=O)c1)N1CCC1 [Example 74, 2-[3-(Azetidin-1-ylcarbonyl)benzyl]-6-{3-[4-(trifluoromethoxy)phenyl]-1,2,4-oxadiazol-5-yl}pyridazin-3(2H)-one]
6 nM	CC(C)(c1ccc(-c2noc(-c3ccc(=O)n(Cc4cccc(C(=O)N5CCC(O)CC5)c4)c3)n2)cc1)C(F)(F)F [Example 33, 1-{3-[(4-Hydroxypiperidin-1-yl)carbonyl]benzyl}-5-{3-[4-(1,1,1-trifluoro-2-methylpropan-2-yl)phenyl]-1,2,4-oxadiazol-5-yl}pyridin-2(1H)-one]
30 nM	CNC(=O)c1cccc(Cn2cc(-c3nc(-c4ccc(C(C)(C)C(F)(F)F)cc4)no3)ccc2=O)c1 [Example 21, N-Methyl-3-{[2-oxo-5-{3-[4-(1,1,1-trifluoro-2-methylpropan-2-yl)phenyl]-1,2,4-oxadiazol-5-yl}pyridin-1(2H)-yl]methyl}benzamide]

— patent US20140329797A1, “SUBSTITUTED OXADIAZOLYL PYRIDINONES AND OXADIAZOLYL PYRIDAZINONES AS HIF INHIBITORS” (Bayer Intellectual Property GmbH, priority 2011, published 2014)
